This experiment relates to P. falciparum 3D7 growth, pLDH absorbance. In words: blood-stage malaria parasite growth potency – strain 3D7, dose response (AID 2305).
`Cc1ccc(CNC(=O)c2ccc(CN3CCCN(Cc4ccsc4)CC3)cc2)cc1` yielded an IC50 of 870 nM. Molecule `CCCCn1c(SC(C)C)nc2c(c1=O)C1(CCCCC1)Cc1ccccc1-2` came in with an IC50 of 670 nM. As for `O=S(=O)(c1ccc(OCc2ccc(Cl)cc2)cc1)c1cc2c(c(-c3ccc(F)cc3)c1)CCN(CC1CC1)CC2`, the figure is 1120 nM; as for `O=C(Nc1cccc(N2CCC(NCc3cnn(-c4cccc(F)c4)c3)CC2)c1)c1ccncc1`, 1390 nM. As to `COc1ccc(C(=O)CCC(=O)N(CCSC(C)(C)C)Cc2ccc(-c3ccc(CNCCc4ccc(S(C)(=O)=O)cc4)cn3)cc2)cc1F`, the IC50 is 630 nM. For the molecule `Oc1cccc(-c2nc(-c3ccccc3)c(-c3ccc4oc5ccc(-c6[nH]c(-c7cccc(O)c7)nc6-c6ccccc6)cc5c4c3)[nH]2)c1`, the IC50 was determined as 790 nM. Consider `CN(CCON1C(N)=NC(N)=NC1(C)C)c1ccccc1`, for which the IC50 was 20 nM. Consider `Nc1c2c(nc3ccc(C(=O)Nc4cc(I)c(O)c(I)c4)cc13)CCCC2`, for which the IC50 worked out at 1010 nM. Molecule `CNc1nc(NN=Cc2ccccc2Cl)nc(Nc2cccc(C(F)(F)F)c2)n1` yielded an IC50 of 920 nM.

In turn, `CCc1cn2c3c(cc(C(=O)N[C@@H](Cc4ccccc4)[C@H](O)CNC4CCC4)cc13)N(C)S(=O)(=O)CC2` returned an IC50 of 100 nM. As for `Cc1cc(CN2CCN(CCOC(c3ccccc3)c3ccccc3)CC2)ccc1O`, the figure is 930 nM. Molecule `Oc1ccccc1CNCc1ccc(-c2cnc(N3CCCC(c4ccccc4)C3)nc2)cc1` (centres undefined) gave an IC50 of 690 nM.

Turning to `COc1ccccc1-c1ccc(CNC(=O)C(CN2CCN(C)CC2)c2ccccc2)cc1` (centres undefined), the IC50 was 1260 nM. To `CS(=O)(=O)c1ccc(CCNCc2ccc(-c3ccc(CN(C(=O)c4ccco4)C4CCN(Cc5ccccc5)CC4)cc3)nc2)cc1` belongs 880 nM; to `COc1ccc(CCCc2nc(N)nc(N)c2-c2ccc(Cl)cc2)cc1`, 40 nM; to `COc1ccc2nc(-c3cc(-c4ccc(NC(=O)CN5CCOCC5)cc4)cnc3N)[nH]c2c1`, 620 nM. `CN(C)CCN(C)Cc1ccc(-c2ccc3c(Nc4ccc(Cl)cc4F)ccnc3c2)o1` came in with an IC50 of 360 nM. Regarding `COc1cc2c(c(OC)c1OC)C[C@H]1c3c(cc4c(c3-2)OCO4)CCN1C`, the IC50 is 970 nM. `Cc1cccc2[nH]c(-c3ccc(-c4ccc(CN5CCN(CCO)CC5)cc4)cc3)nc12` had an IC50 of 600 nM. On to `COc1ccc(Nc2ccnc3cc(Cl)ccc23)cc1OC`, for which the IC50 stood at 1120 nM. In the case of `O=C(/C=C/c1ccc(Cl)c(Cl)c1)NCCCCCN1CCCC(CNS(=O)(=O)c2cccc(C(F)(F)F)c2)C1` (centres undefined), the IC50 turned out to be 950 nM. The molecule `Cc1[nH]c(C)c(-c2ccc(-c3cccc(C(F)(F)F)c3)nc2)c(=O)c1Br` registered an IC50 of 140 nM. In turn, `Cc1cc(NN=Cc2ccccc2F)c2cccc(C)c2n1` came in with a half-maximal inhibitory concentration (IC50) of 760 nM. In turn, `CCc1cc2c(cc1OCCN(C)C)N(C(=O)Nc1ccc(-c3ccncc3)c(Cl)c1)CC2` yielded an IC50 of 840 nM.

In turn, `O=C(COc1ccccc1)Nn1cnc2ccccc21` displayed an IC50 of 1050 nM. `CC(C)[C@H](NC(=O)c1ccc(O)c(-c2cccc(C(F)(F)F)c2)c1)C(=O)NC1CCCc2ccccc21` (some centres undefined) had an IC50 of 930 nM. For `COC(=O)C(NC(=O)c1ccc(-c2ccc(-c3nc4ccccc4[nH]3)s2)cc1)c1ccc(O)cc1` (centres undefined), the IC50 amounted to 740 nM. Take `O=C(Cc1cccc(Cl)c1)Nc1cccc(-c2c[nH]c3nc(Nc4cccc(O)c4)ncc23)c1`: the IC50 came to 730 nM. Turning to `CC(c1cccc(S(=O)(=O)NCc2ccc(Cl)cc2Cl)c1)N1CCC(N2CCCCC2)CC1` (centres undefined), the IC50 was found to be 750 nM. The molecule `NC1=NC(Cc2ccccc2)(c2ccncc2)C(=O)N1CCCc1ccccc1` (centres undefined) displayed a half-maximal inhibitory concentration (IC50) of 940 nM. To `COc1ccc2c(ccc3c2ncc2c(=O)n(-c4ccccc4)[nH]c23)c1` belongs 520 nM.

As for `CN1CCC(NCc2cccc(-c3cccc(-c4nc5ccc(C(F)(F)F)cc5[nH]4)c3)c2)CC1`, the IC50 turned out to be 140 nM.

Take `CC[C@H]1CN2CCc3cc(OC)c(OC)cc3[C@@H]2C[C@@H]1C[C@H]1NCCc2c1cc(OC)c(OC)c2Br`: the IC50 was 650 nM. On to `Cc1cccc2[nH]c(-c3ccc(-c4ccc(NC(=O)Nc5ccsc5)cc4)cc3)nc12`, for which the 50% inhibitory concentration (IC50) amounted to 170 nM.

Molecule `CCN(CC)CCN(Cc1ccc(-c2ccc(C(F)(F)F)cc2)cc1)C(=O)c1c[nH]c2ccc(Br)cc12` yielded an IC50 of 950 nM.

`COc1cccc(Cc2c(C)nc3nc(N)nc(N)c3c2C)c1` displayed an IC50 of 880 nM. As for `C[C@H](N[C@H]1CCCc2c1[nH]c1ccc(Br)cc21)c1ccccc1`, the figure is 220 nM.

In turn, `Cc1[nH]c(C)c(-c2ccc(-c3ccc(C(F)(F)F)cc3C(F)(F)F)nc2)c(=O)c1Br` had an IC50 of 190 nM. For `CN1CCCC1CCNc1ncc2c(-c3ccc(NC(=O)Nc4cc(C(F)(F)F)ccc4F)cc3)nn(C)c2n1` (centres undefined), the IC50 was found to be 340 nM.

`CCc1[nH]nc(C(=O)Nc2cccc(N3CCCC3)c2)c1C` had an IC50 of 1460 nM.

The molecule `NC1CCN(CCc2ccc(NS(=O)(=O)c3ccc(-c4ccccc4)cc3)cc2)CC1` had an IC50 of 1020 nM. Consider `COc1c(C2CCN(CCCCNC(=O)c3cc(-c4ccc(C#N)cc4)n[nH]3)CC2)ccc2c1CCCC2`, for which the IC50 was 1160 nM.

The molecule `O=C(CSc1ccccn1)Nc1c(F)cccc1F` returned an IC50 of 1210 nM. To `CN1CCN(c2cc(-c3ccncc3)nc(-c3cccnc3)n2)CC1` belongs 810 nM.

What is called IC50 is the point on the concentration scale where inhibition reaches its midpoint. A low value points to inhibition by little substance.

Values taken from PubChem BioAssay AID2305 (GlaxoSmithKline (GSK), 2010).
